The target of data set [1] is T1, α1β2γ2S GABAA receptors (Homo sapiens, UniProt P14867+P47870).
T1 construct: expressed in transfected cells; host or cells: Xenopus laevis oocytes injected with cRNA (pCMV cDNA templates)
The experiment in a line: Two-microelectrode voltage clamp, IGABA modulation, α1β2γ2S. The class given is cell-based. The conditions noted are these: for nH: Hill coefficient of concentration–response curve; for EC50: IGABA enhancement, GABA EC3–7, Xenopus oocytes. The protocol: (§1) Preparation of stage V–VI oocytes from X. laevis and synthesis of capped runoff poly(A) cRNA transcripts from linearized cDNA templates (pCMV vector) was performed as previously described.[49] […] Follicle membranes from isolated oocytes were enzymatically digested with 2 mg/mL collagenase (type 1A, Sigma–Aldrich, Vienna, Austria).
(§2) Selected oocytes were injected with 10–50 nL of DEPC-treated water (diethyl pyrocarbonate, Sigma, Vienna, Austria) containing the different GABAA cRNAs at a concentration of approximately 300–3000 pg·nL^–1·subunit^–1.
(§3) To ensure expression of the γ2S subunit in the case of α1/2/3/5β2/3γ2S receptors, cRNAs were mixed in a ratio of 1:1:10. […] The amount of cRNAs was determined by means of a NanoDrop ND-1000 (Kisker-Biotech, Steinfurt, Germany).
(§4) Oocytes were stored at +18 °C in modified ND96 solution (90 mM NaCl, 1 mM CaCl2, 1 mM KCl, 1 mM MgCl2·6H2O, and 5 mM HEPES [4-(2-hydroxyethyl)-1-piperazineethanesulfonic acid], pH 7.4, all from Sigma–Aldrich, Vienna, Austria).
(§5) Chloride currents through GABAA receptors (IGABA) were measured at room temperature (+21 ± 1 °C) by means of a two-microelectrode voltage clamp technique making use of a Turbo TEC-05X amplifier (npi electronic, Tamm, Germany). IGABA were elicited at a holding potential of –70 mV. Data acquisition was carried out by means of an Axon Digidata 1322A interface using pCLAMP v.10 (Molecular Devices, Sunnyvale, CA). The modified ND96 solution was used as bath solution.
(§6) GABA and the studied derivatives were applied by means of the ScreeningTool (npi electronic, Tamm, Germany) fast perfusion system as described previously.[50] To elicit IGABA, the chamber was perfused with 120 μL of GABA- or compound-containing solution at a volume rate of 300 μL/s.[34] Care was taken to account for possible slow recovery from increasing levels of desensitization in the presence of high drug concentrations. The duration of washout periods was therefore extended from 1.5 min (<10 μM compounds) to 30 min (≥10 μM compounds). Oocytes with maximal current amplitudes >3 μA were discarded to exclude voltage clamp errors.
Stimulation of chloride currents by modulators of the GABAA receptor was measured at a GABA concentration eliciting between 3% and 7% of the maximal current amplitude (EC3–7). The GABA EC3–7 was determined for each oocyte individually. Enhancement of the chloride current was defined as (IGABA+compd/IGABA) – 1, where IGABA+compd is the current response in the presence of a given compound and IGABA is the control GABA current. IGABA-max reflects the maximal IGABA enhancement. Concentration–response curves were generated and the data were fitted by nonlinear regression analysis using Origin Software (OriginLab Corp.). Data were fitted to the equation 1/(1 + (EC50/[compound])^nH), where nH is the Hill coefficient. […] Statistical significance was calculated by paired Student t-test with a confidence interval of <0.05.

Data set [2] concerns the target T2, α1β1γ2S GABAA receptors (Homo sapiens, UniProt P14867+P18505).
T2 construct: expressed in transfected cells; host or cells: Xenopus laevis oocytes injected with cRNA (pCMV cDNA templates)
The experiment in a line: Two-microelectrode voltage clamp, IGABA modulation, α1β1γ2S. The class given is cell-based. The conditions noted are these: for nH: Hill coefficient. The protocol: as §1, §2, §3, §4, §5, §6
(§7) Stimulation of chloride currents by modulators of the GABAA receptor was measured at a GABA concentration eliciting between 3% and 7% of the maximal current amplitude (EC3–7). The GABA EC3–7 was determined for each oocyte individually. Enhancement of the chloride current was defined as (IGABA+compd/IGABA) – 1, where IGABA+compd is the current response in the presence of a given compound and IGABA is the control GABA current. IGABA-max reflects the maximal IGABA enhancement. […] Statistical significance was calculated by paired Student t-test with a confidence interval of <0.05.

Data set [3] has as its target T3, α2β2γ2S GABAA receptors (Homo sapiens, UniProt P47869+P47870).
T3 construct: expressed in transfected cells; host or cells: Xenopus laevis oocytes injected with cRNA (pCMV cDNA templates)
The experiment in a line: Two-microelectrode voltage clamp, IGABA modulation, α2β2γ2S. It is filed as cell-based. The conditions noted are these: for nH: Hill coefficient. The procedure: as §1, §2, §3, §4, §5, §6, §7

The target in data set [4] is T4, α3β2γ2S GABAA receptors (Homo sapiens, UniProt P34903+P47870).
T4 construct: expressed in transfected cells; host or cells: Xenopus laevis oocytes injected with cRNA (pCMV cDNA templates)
Description: Two-microelectrode voltage clamp, IGABA modulation, α3β2γ2S. The conditions noted are these: for nH: Hill coefficient. The class given is cell-based. The protocol: as §1, §2, §3, §4, §5, §6, §7

The target of data set [5] is T5, α5β2γ2S GABAA receptors (Homo sapiens, UniProt P31644+P47870).
T5 construct: expressed in transfected cells; host or cells: Xenopus laevis oocytes injected with cRNA (pCMV cDNA templates)
Description: Two-microelectrode voltage clamp, IGABA modulation, α5β2γ2S. It is filed as cell-based. The conditions noted are these: for nH: Hill coefficient. The procedure:
as §1, §2, §3, §4, §5, §6, §7

Data set [6] has as its target T6, TRPV1 (Homo sapiens, UniProt Q8NER1).
T6 construct: expressed in transfected cells; host or cells: Xenopus laevis oocytes
The experiment in a line: TRPV1 activation in Xenopus oocytes. It is filed as cell-based. The conditions noted are these: 100 μM, data not shown. The text has this: (for review see ref ([47])). In order to rule out potential activation of TRPV1, selected compounds were studied in X. laevis oocytes for interaction with TRPV1 prior to in vivo characterization. […] Both compounds were further characterized concerning their anxiolytic activity (see also ref ([34])).

Data set [7] has as its system male C57BL/6N mice. The experiment in a line: Elevated plus maze test. The class given is in vivo. The conditions noted are these: for time spent in open arms (OA) as percentage of total time: 30 min after application, EPM; for effect in the EPM test: ip, 30 min before test. The procedure:
(§8) Male mice (C57BL/6N) were obtained from Charles River Laboratories (Sulzfeld, Germany). For maintenance, mice were group-housed (maximum five mice per type IIL cage) with free access to food and water. At least 24 h before the commencement of experiments, mice were transferred to the testing facility, where they were given free access to food and water. The temperature in the maintenance and testing facilities was 23 ± 1 °C; the humidity was 40–60%; a 12 h light–dark cycle was in operation (lights on from 07:00 to 19:00). Only male mice aged 3–6 months were tested.
(§9) Compounds were applied by intraperitoneal (ip) injection 30 min before each test. Testing solutions were prepared in a solvent composed of 0.9% NaCl solution with 10% dimethyl sulfoxide (DMSO) and 3% Tween 80. […] All doses are indicated as milligrams per kilogram of body weight of the animal.
The animals’ behavior was tested over 5 min on an elevated plus maze 1 m above ground consisting of two closed and two open arms, each 50 × 5 cm in size. The test instrument was built from gray PVC; the height of closed arm walls was 20 cm. Illumination was set to 180 Lux. Animals were placed in the center, facing an open arm. Analysis of open and closed arm entries and time on open arm was automatically done with Video-Mot 2 equipment and software (TSE Systems, Bad Homburg, Germany).[34]

Data set [8] concerns male C57BL/6N mice. The experiment in a line: Open field test. It is filed as in vivo. The conditions noted are these: ip, total ambulation. The protocol:
as §8, §9
Ambulation was tested over 10 min in a 50 × 50 cm flexfield box equipped with infrared rearing detection. Illumination was set to 150 Lux. The animals’ explorative behavior was analyzed by use of the ActiMot 2 equipment and software (TSE-systems, Bad Homburg, Germany). Arenas were subdivided into border (up to 8 cm from wall), center (20 × 20 cm, 16% of total area), and intermediate area according to the recommendations of EMPRESS (European Mouse Phenotyping Resource of Standardised Screens; http://empress.har.mrc.ac.uk).

The structures appear in SMILES notation.

This is an account of results in article PMC4106271 (Journal of Medicinal Chemistry, 2014).

T5 sequence (P31644 32-462): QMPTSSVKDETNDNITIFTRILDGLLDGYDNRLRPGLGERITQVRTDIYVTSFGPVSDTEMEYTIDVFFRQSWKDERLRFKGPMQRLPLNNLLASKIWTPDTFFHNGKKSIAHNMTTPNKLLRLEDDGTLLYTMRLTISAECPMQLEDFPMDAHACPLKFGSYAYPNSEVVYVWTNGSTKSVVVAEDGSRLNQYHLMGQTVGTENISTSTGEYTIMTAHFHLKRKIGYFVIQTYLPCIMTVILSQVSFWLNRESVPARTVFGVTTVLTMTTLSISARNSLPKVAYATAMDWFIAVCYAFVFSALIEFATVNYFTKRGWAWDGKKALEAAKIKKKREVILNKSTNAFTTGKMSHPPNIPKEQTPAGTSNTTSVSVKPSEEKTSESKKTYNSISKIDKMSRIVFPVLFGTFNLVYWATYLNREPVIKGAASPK
T5 sequence (P47870 26-512): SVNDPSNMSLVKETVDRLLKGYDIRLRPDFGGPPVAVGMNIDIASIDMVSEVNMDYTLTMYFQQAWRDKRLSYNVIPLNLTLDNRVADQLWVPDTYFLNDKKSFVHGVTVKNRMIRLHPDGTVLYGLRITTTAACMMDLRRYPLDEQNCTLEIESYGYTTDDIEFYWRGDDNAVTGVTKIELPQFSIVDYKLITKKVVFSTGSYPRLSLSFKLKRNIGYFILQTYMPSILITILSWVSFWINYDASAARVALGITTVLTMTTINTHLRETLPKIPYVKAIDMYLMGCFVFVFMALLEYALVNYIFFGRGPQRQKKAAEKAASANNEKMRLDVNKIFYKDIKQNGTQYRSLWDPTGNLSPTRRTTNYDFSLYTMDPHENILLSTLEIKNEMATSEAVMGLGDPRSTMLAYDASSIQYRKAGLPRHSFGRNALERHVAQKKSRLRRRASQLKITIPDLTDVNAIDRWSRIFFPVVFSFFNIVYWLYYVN
T5 sequence (P18507 40-467 isoform P18507-1 partner limits assumed): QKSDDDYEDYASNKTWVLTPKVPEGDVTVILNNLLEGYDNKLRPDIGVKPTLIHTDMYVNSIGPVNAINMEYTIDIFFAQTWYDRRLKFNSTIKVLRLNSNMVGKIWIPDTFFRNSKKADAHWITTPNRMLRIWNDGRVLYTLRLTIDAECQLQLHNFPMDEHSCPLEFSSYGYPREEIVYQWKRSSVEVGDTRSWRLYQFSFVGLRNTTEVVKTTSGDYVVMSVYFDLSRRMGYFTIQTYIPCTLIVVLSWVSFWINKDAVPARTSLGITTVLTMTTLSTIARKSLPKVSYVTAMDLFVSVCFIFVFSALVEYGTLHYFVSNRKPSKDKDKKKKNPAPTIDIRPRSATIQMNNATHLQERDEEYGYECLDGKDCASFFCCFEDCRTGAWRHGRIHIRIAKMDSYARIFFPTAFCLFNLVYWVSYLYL
T1 sequence (P14867 28-456): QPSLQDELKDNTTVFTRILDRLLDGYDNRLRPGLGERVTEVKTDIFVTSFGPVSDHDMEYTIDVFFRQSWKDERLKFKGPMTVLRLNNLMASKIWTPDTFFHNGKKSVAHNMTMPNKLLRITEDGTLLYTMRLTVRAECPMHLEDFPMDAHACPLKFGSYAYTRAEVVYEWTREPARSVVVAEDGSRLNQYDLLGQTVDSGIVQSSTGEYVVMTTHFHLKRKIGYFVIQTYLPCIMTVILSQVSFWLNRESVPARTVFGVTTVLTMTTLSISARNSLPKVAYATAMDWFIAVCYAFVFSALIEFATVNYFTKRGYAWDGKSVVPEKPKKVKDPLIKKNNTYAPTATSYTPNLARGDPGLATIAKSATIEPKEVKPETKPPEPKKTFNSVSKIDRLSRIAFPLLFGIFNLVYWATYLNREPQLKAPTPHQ
T1 sequence (P47870 26-512): as the sequence (P47870 26-512) above
T1 sequence (P18507 40-467 isoform P18507-1 partner limits assumed): as the sequence (P18507 40-467 isoform P18507-1 partner limits assumed) above
T2 sequence (P14867 28-456): as the sequence (P14867 28-456) above
T2 sequence (P18505 26-474): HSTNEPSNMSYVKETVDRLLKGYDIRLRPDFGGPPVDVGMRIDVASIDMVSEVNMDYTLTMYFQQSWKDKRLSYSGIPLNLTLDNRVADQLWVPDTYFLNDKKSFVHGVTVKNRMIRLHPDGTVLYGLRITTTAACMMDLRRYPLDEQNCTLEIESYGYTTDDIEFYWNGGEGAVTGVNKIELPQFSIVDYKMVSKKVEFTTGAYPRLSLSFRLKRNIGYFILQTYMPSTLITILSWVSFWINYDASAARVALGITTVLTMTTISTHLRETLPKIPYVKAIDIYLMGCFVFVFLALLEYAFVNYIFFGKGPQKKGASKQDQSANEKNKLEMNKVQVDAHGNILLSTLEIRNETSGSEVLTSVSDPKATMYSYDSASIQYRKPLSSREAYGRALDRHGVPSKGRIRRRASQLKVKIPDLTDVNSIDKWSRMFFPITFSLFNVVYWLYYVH
T2 sequence (P18507 40-467 isoform P18507-1 partner limits assumed): as the sequence (P18507 40-467 isoform P18507-1 partner limits assumed) above
T4 sequence (P34903 29-492): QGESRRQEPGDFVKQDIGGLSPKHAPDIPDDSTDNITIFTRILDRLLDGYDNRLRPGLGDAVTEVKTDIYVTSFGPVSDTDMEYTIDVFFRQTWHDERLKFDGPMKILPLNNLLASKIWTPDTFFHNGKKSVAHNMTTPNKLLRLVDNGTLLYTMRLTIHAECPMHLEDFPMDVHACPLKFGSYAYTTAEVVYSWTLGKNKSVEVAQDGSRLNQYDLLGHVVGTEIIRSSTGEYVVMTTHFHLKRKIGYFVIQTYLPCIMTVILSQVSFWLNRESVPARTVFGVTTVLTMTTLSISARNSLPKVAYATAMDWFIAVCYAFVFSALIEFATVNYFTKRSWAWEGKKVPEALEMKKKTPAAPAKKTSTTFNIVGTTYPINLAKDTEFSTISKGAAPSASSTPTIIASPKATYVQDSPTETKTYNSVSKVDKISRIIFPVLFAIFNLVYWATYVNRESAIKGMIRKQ
T4 sequence (P47870 26-512): as the sequence (P47870 26-512) above
T4 sequence (P18507 40-467 isoform P18507-1 partner limits assumed): as the sequence (P18507 40-467 isoform P18507-1 partner limits assumed) above
T3 sequence (P47869 29-451): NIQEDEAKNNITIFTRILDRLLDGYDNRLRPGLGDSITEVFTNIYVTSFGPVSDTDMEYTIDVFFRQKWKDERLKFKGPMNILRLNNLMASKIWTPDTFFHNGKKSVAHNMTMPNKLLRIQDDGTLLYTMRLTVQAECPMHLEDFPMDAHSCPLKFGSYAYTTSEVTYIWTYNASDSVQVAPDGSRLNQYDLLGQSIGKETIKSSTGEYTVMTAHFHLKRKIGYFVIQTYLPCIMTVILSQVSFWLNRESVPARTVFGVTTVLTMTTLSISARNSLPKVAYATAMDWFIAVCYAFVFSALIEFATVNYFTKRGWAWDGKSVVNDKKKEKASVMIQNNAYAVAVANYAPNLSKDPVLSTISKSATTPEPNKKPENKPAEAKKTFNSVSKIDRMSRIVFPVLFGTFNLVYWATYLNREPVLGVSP
T3 sequence (P47870 26-512): as the sequence (P47870 26-512) above
T3 sequence (P18507 40-467 isoform P18507-1 partner limits assumed): as the sequence (P18507 40-467 isoform P18507-1 partner limits assumed) above
T6 sequence (Q8NER1 whole entry, species assumed): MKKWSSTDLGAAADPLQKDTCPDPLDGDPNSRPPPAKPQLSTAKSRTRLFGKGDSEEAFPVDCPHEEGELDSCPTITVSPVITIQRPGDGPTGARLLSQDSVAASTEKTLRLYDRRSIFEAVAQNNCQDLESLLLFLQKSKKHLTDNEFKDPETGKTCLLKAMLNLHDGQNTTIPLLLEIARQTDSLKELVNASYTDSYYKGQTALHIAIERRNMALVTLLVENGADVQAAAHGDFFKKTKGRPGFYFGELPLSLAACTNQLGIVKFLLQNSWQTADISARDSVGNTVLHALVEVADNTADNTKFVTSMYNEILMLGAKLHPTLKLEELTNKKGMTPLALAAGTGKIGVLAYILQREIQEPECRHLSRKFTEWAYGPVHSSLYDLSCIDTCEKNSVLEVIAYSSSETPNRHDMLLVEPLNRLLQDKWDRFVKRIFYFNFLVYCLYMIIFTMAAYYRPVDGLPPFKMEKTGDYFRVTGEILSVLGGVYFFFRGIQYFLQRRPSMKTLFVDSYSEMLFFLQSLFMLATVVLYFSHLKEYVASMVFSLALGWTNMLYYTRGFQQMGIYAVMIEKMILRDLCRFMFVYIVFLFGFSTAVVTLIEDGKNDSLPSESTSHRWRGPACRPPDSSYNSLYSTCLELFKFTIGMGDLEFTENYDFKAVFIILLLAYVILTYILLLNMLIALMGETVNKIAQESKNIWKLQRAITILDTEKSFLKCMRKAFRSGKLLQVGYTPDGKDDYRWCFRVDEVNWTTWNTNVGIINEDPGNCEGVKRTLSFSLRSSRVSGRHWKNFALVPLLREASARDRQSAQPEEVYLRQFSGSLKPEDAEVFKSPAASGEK

As for `CCCCN(CCCC)C(=O)/C=C/C=C/c1ccc2c(c1)OCO2` [Compound 25, (2E,4E)-5-(1,3-Benzodioxol-5-yl)-N,N-dibutyl-2,4-pentadienamide], the nH is recorded as 1.8 ± 0.1 in data set [1]; 1.3 ± 0.6 in data set [2]; 2.2 ± 0.3 in data set [3]; 1.8 ± 0.1 in data set [4]; 1.7 ± 0.2 in data set [5]. The EC50 turned out to be 13.8 ± 1.8 µM in data set [1]; 15.9 ± 4.9 µM in data set [2]; 14.8 ± 1.9 µM in data set [3]; 16 ± 2.7 µM in data set [4]; 17.2 ± 1.4 µM in data set [5]. Moreover, in data set [6], the “activation of TRPV1” value was “did not activate TRPV1”. For the same molecule, the “time spent in open arms (OA) as percentage of total time” value in data set [7] (0.3 mg/kg ip) is on record as 39.8% ± 4.1%; in data set [7] (3 mg/kg ip), 43.9% ± 4.3%. Moreover, in data set [7], the “effect in the EPM test” value is on record as “anxiolytic effects”. In addition, the “sedation in the OF test” value in data set [8] was “little sedation”.

Consider `CCCN(CCC)C(=O)/C=C/C=C/c1ccc2c(c1)OCO2` [Compound 23, (2E,4E)-5-(1,3-benzodioxol-5-yl)-N,N-dipropyl-2,4-pentadienamide], for which the nH is recorded as 3.1 ± 0.8 in data set [1]; 1.8 ± 0.1 in data set [2]; 1.9 ± 0.4 in data set [3]; 1.9 ± 0.3 in data set [4]; 1.4 ± 0.1 in data set [5]. In addition, the EC50 in data set [1] worked out at 51.7 ± 9.5 µM; in data set [2], 57.5 ± 7.3 µM; in data set [3] it was 26.4 ± 6.6 µM; in data set [4], 36.6 ± 7.2 µM; in data set [5], 61.9 ± 10.4 µM. Besides, the “activation of TRPV1” value in data set [6] is listed as “did not activate TRPV1”. Besides, the “time spent in open arms (OA) as percentage of total time” value in data set [7] (0.3 mg/kg ip) was 45.6% ± 3.2%. Besides, the “effect in the EPM test” value in data set [7] was “anxiolytic effects”. In addition, the “sedation in the OF test” value in data set [8] was “little sedation”.
